{"source": "patent US6747061B2", "about": "“N-substituted dithiocarbamates for the treatment of biological disorders” (AtheroGenics, Inc., priority 2000, dated 2004)", "key": {"[1]": {"tested_on": "SNU-C5 colorectal carcinoma cells", "test": "Anti-proliferative effect on SNU-C5 cells (CellTiter96)", "assay_type": "cell-based", "conditions": "read-out: proliferation, percent of control; for activity at 1 µM: NDE 1 μM; for activity at 10 µM: NDE 10 μM; for activity at 100 µM: NDE 100 μM", "experimental": "All primary cells and cell lines were commercially available. The transformed cell lines were grown in Dulbecco's Modified Eagle Media supplemented with 2 mM L-glutamine, 50 I.U. penicillin, 50 μg/ml streptomycin, nonessential amino acids and 10% heat-inactivated fetal bovine serum. HASM, HAEC and NHBE cells were cultured exactly as described by the commercial provider (Clonetics, San Diego, Calif.). All cell lines were grown at 37° C. in 5% CO2, with the media being changed every 48 hours.\nFor the experimental assays, cells were plated in 96-well plates and grown until ˜35% confluency was achieved. For the transformed cell lines, cells were plated at low density and grown for 72 hours prior to being stimulated, whereas the non-transformed cells were plated at a higher density and grown for 24 hours prior to being stimulated.\nCells were treated with dithiocarbamate (0.1-100 μM)±5FU (0.01-10 μM) and retreated after 48 hours when media was changed. Cell growth was assessed using the CellTiter96® assay system from Promega (Madison, Wis.). Each experimental condition was performed in triplicate or quadruplicate, with the number of experiments for each cell line being three.\nStatistical significance was assessed using an ANOVA with the appropriate post-hoc analysis as well as Students t-tests. *=p<0.05 when compared to control-treated (DMSO) cells. #=p<0.05 when compared to 5FU-treated cells."}, "[2]": {"tested_on": "VCAM-1", "test": "VCAM-1 assay: enzyme immunoassay of TNF-α induced VCAM-1 expression in endothelial cells", "assay_type": "cell-based, Human", "conditions": "Homo sapiens, Endothelial cell; HAEC, TNF-α 1 ng/ml, approximately 16 hours; read-out: VCAM-1 IC50", "experimental": "The VCAM-1 assay is an enzyme immunoassay to detect tumor necrosis factor alpha (TNF-α) induced Vascular Adhesion Molecule (VCAM-1) expression in endothelial cells.\nHuman endothelial cells (HAEC) were purchased from Clonetics and maintained in EGM media (Clonetics) supplemented with 5% fetal bovine serum (FBS). In a typical experiment, cells were seeded in 96-well plates. The next day cells were stimulated with TNF-α (1 ng/ml) purchased from Boehringer Mannheim in the presence or absence of compounds dissolved in dimethylsulphoxide (DMSO). To establish a dose curve for each compound, four concentrations in 2 fold increments were used. Cells were exposed to TNF-α and compounds for approximately 16 hours. The next day, cells were examined under microscope to score for visual signs of toxicity.\nMedia was discarded and the cells were washed once with Hanks buffered saline solution (HBSS)/phosphate buffered solution (PBS) 91:1). Primary mouse monoclonal antibody against VCAM-1 purchased from Southern Biotechnology Associates (0.25 μg/ml in HBSS/PBS+5% FBS) was added and incubated at 37° C. for 30 minutes. Cells were washed with HBSS/PBS three times, and secondary antibody horse radish peroxidase (HRP)-conjugated goat anti-mouse IgG purchased from Southern Biotechnology Associates (1:500 in HBSS/PBS+5% FBS) was added and incubated at 37° C. for 30 minutes. Cells were washed with HBSS/PBS four times and peroxidase substrate 3.3′,5,5′-tetramethyl-benzidine (TMB) was added and incubated in the dark at room temperature until there was adequate blue color development. The length of incubation time was typically 5-15 minutes. 2 N sulfuric acid was added to stop the color development and the data was collected by reading the absorbance at O.D. 450 nm. The result was expressed as the percentage of control sample (cells stimulated by TNF without any compound)."}, "[3]": {"tested_on": "eotaxin", "test": "Eotaxin assay: enzyme immunoassay of TNF-α and IL-4 induced eotaxin expression in BEAS-2B cells", "assay_type": "cell-based", "conditions": "Homo sapiens, TNF 10 ng/ml + IL-4, approximately 16 hours", "experimental": "The eotaxin assay is an enzyme immunoassay to measure tumor necrosis factor alpha (TNF-α) and interleukin-4 (IL-4) induced expression of eotaxin in a human epithelial cell line (BEAS-2B).\nBEAS-2B cells purchased from ATCC and maintained in DMEM/F12 plus 10% serum and penicillin plus streptomycin. In a typical experiment, cells were seeded in 96-well plates. The next day cells were stimulated with TNF (10 ng/ml)+IL-4 ([…]) in the presence or absence of compounds dissolved in dimethylsulphoxide (DMSO) in DMEM/F12 plus 1% rabbit serum albumin (RSA). To establish a dose curve for each compound, three concentrations in 2 fold increments were used. Cells were exposed to cytokines and compounds for approximately 16 hours. The next day, the cells were examined under microscope to score for visual signs of toxicity. The culture media was used to measure eotaxin level.\n100 μl of anti-human eotaxin monoclonal antibody (3 μg/ml) purchased from R & D Systems was used to coat 96-well plates overnight at room temperature. […] 2N sulphuric acid stopped the color development and data were collected by a microplate reader set at O.D. 450 nm. The results were expressed as the percentage of control sample (cells stimulated by TNF without any compound)."}}, "note": "Read-outs that look alike come from different tables or passages of the source.", "data": [{"smiles": "COC(=O)CCCSC(=S)NCC1CCCO1", "note": "(centres unmarked) [NDE, 4-(tetrahydrofuran-2-ylmethylthiocarbamoylsulfanyl)-butyric acid methyl ester]", "values": [{"measurement": "activity at 1 µM", "setting": "[1]; 24 HOURS", "result": "138 ± 24.2", "unit": "%"}, {"measurement": "activity at 1 µM", "setting": "[1]; 48 HOURS", "result": "105 ± 7.42", "unit": "%"}, {"measurement": "activity at 1 µM", "setting": "[1]; 72 HOURS", "result": "127 ± 16.4", "unit": "%"}, {"measurement": "activity at 10 µM", "setting": "[1]; 24 HOURS", "result": "93.4 ± 15.9", "unit": "%"}, {"measurement": "activity at 10 µM", "setting": "[1]; 48 HOURS", "result": "70.5 ± 8.42", "unit": "%"}, {"measurement": "activity at 10 µM", "setting": "[1]; 72 HOURS", "result": "59.2 ± 4.1", "unit": "%"}, {"measurement": "activity at 100 µM", "setting": "[1]; 24 HOURS", "result": "60 ± 10.8", "unit": "%"}, {"measurement": "activity at 100 µM", "setting": "[1]; 48 HOURS", "result": "26.3 ± 8.64", "unit": "%"}, {"measurement": "activity at 100 µM", "setting": "[1]; 72 HOURS", "result": "13.6 ± 1.31", "unit": "%"}, {"measurement": "IC50", "setting": "[2]", "result": 1.5, "unit": "µM"}, {"measurement": "IC50", "setting": "[3]", "result": 6, "unit": "µM"}]}]}
